Experimental data reported in patent publication US20180338952A1, “COMPOSITIONS AND METHODS FOR TREATING AND DIAGNOSING OCULAR DISORDERS” (Translatum Medicus Inc., priority 2014, published 2018).
Entries after “also recorded” stand apart in the source; their conditions may differ.

How the values were obtained:
[1] = system: circulating monocytes and resident macrophages; assay: Monocyte/macrophage depletion in the NaIO3 model, FAF/DNIRA pattern; assay type: in vivo, rat; details: for NaIO3-induced pattern of FAF (and DNIRA): macrophage/monocyte depletion, Day 3 and Day 7 after NaIO3
From the text: To determine the identity of the autofluorescent cells that coincide with the reticular pattern of FAF, excised retina were stained for with markers of the innate immune system, avoiding the 488 nm channel. Iba1 is a pan-microglial/macrophage marker and in the rat retina; antibodies against it identify the major phagocytic cell populations. […] Further, when compared against photoreceptor nuclear staining, this curvilinear pattern is seen to lie interposed between folds of the deformed ONL. This pattern of Iba1^+ cells corresponds with the pattern of hyperfluorescence observed in vivo by FAF imaging, and with the pattern of autofluorescent cells in excised retina. […] Importantly, at 7 days after NaIO3, all RPE cells are absent from the posterior eye cup, confirming that these cells cannot be responsible for the observed FAF. Also, identification of the autofluorescent cells as phagocytic was confirmed by comparison of imaging to preparations in which monocyte/macrophage depletion has been undertaken. Such depletion was achieved by treatment with gadolinium chloride (GAD).
Further, to confirm that hyperfluorescent FAF or abnormal patterns of FAF and hyperfluorescent DNIRA correlated or co-localized with the distribution of phagocytic cells, the circulating macrophage/monocyte population was depleted using gadolinium chloride (GAD or GdCl3), a rare earth metal salt which depresses macrophage activity. […] This was evident qualitatively both within the geographic areas of damage, and at its border (FIGS. 8A-C).

[2] = system: retinal function (b-wave amplitude); assay: Electroretinography toxicity study of systemic ICG; details: high (5.0 mg/kg) and low (0.35 mg/kg) systemic dose vs PBS; three weeks following injection
Procedure: Electroretinography (ERG) was performed to evaluate potential toxicity.
Electroretinography (ERG): animals receiving ICG or PBS were evaluated using the Espion (DiagnosysLLC, USA) mini-Ganzfeld ERG system. Following anesthesia, animals were placed on an electrically silent heating pad and gold coil electrodes placed on the corneal surface after application of GenTeal lubricating drops. Following a short train of dim flashes (0.01 candela s/m^2, 1.0 Hz), a scotopic b-wave amplitude was evaluated using a single bright flash (3 candela s/m^2) that we previously determined consistently produces a response close to the maximum b-wave amplitude. Student t-test was used to compare post-injection amplitudes against baseline (prior to injection).

[3] = target: complement factor D (CFD) (Homo sapiens, UniProt P00746); details: phase II, 18 month period, patients; cited from earlier work
Chain of complement factor D (CFD) (P00746 26-253): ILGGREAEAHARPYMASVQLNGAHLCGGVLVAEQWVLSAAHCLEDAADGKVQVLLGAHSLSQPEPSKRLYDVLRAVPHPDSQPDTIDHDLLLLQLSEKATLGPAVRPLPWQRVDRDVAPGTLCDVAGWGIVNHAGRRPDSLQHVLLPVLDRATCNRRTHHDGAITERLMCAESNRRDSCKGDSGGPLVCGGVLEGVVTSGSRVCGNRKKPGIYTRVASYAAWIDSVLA

Q: What does the source list for `[Cl][Gd]([Cl])[Cl]` [GAD, gadolinium chloride]?
A: area of damage ([1]; 7 days after NaIO3 and simultaneous GAD depletion): smaller areas of damage; NaIO3-induced pattern of FAF (and DNIRA) [1]: far less well defined reticular patterns of FAF; also recorded: profound alteration; also recorded: less well-demarcated borders; NaIO3-induced pattern of FAF (and DNIRA) ([1]; listed as gadolinium): alters the FAF pattern

Q: For `CC1(C)C(/C=C/C=C/C=C/C=C2\N(CCCCS(=O)(=O)O)c3ccc4ccccc4c3C2(C)C)=[N+](CCCCS(=O)(=O)[O-])c2ccc3ccccc3c21` [ICG, indocyanine green], which “change in ERG b-wave amplitude” value [2] is on record?
A: no statistically significant change

Q: Which “growth (expansion) of geographic atrophy” value [3] does the source give for “Lampilizumab: complement factor D (CFD) inhibitor; anti-factor D antibody (Genentech)” here?
A: can slow the growth
